Target: T1, cathepsin S (Homo sapiens, UniProt P25774)
T1 construct: purchased Calbiochem 219343; host or cells: E. coli
Assay: Cathepsin S enzyme inhibition in vitro (kinetic fluorescence assay)
Type: biochemical
Settings: Ki(cathepsin S)/Ki(calpain) ratio
Protocol: (§1) Testing for blockade of the corresponding enzymic activities was carried out by means of kinetic fluorescence assays (excitation 390 nm, emission 460 nm).
(§2) Apparent Ki values were calculated from the experimentally determined IC50 values by the Cheng-Prussoff relation assuming a reversible competitive enzyme inhibition. The Km values of the substrates used under the assay conditions indicated above were: 90 μM (Z-Phe-Arg-AMC, cathepsin B), 10 μM (Z-Gly-Pro-Arg-AMC, cathepsin K), 2 μM (Z-Phe-Arg-AMC, cathepsin L), and 30 μM (Z-Val-Val-Arg-AMC, cathepsin S).
(§3) The indicated Ki values are averages of the inhibition constants calculated on the basis of 2 to 4 independent dose-effect plots.
(§4) • 1. Calpain I: • 20 nM calpain-I—isolated from human erythrocytes (Calbiochem #208713), 100 μM Suc-Leu-Tyr-AMC (Bachem #1-1355) as substrate in buffer with 62 mM imidazole, 0.3 mM CaCl2, 0.10% CHAPS, 0.05% BSA, 1 mM DTT at pH 7.3 and room temperature. • 2. Cathepsin B: • 0.25 nM cathepsin B—isolated from human liver (Calbiochem #219362), 100 μM Z-Phe-Arg-AMC (Bachem #1-1160) as substrate 50 mM MES, 2 mM EDTA, 0.05% Brij 35, 2.5 mM L-cysteine, pH 6.0, room temperature. • 3. Cathepsin K: • 3 nM cathepsin K—activated from recombinant human procathepsin K from E. coli (Calbiochem #342001), 10 μM Z-Gly-Pro-Arg-AMC (Biomol #P-142) as substrate in 50 mM MES, 2 mM EDTA, 0.05% Brij 35, 2.5 mM L-cysteine, pH 6.0, room temperature. • 4. Cathepsin L: • 1 nM cathepsin L—isolated from human liver (Calbiochem #219402), 2 μM Z-Phe-Arg-AMC (Bachem #1-1160) as substrate in 50 mM MES, 2 mM EDTA, 0.05% Brij 35, 2.5 mM L-cysteine, pH 6.0, room temperature. • 5. Cathepsin S: • 0.5 nM recombinant human cathepsin S from E. coli (Calbiochem #219343), 20 μM Z-Val-Val-Arg-AMC (Bachem #1-1540) as substrate in 50 mM MES, 2 mM EDTA, 0.05% Brij 35, 2.5 mM L-cysteine, pH 6.0, room temperature.

T1 sequence (P25774 115-331): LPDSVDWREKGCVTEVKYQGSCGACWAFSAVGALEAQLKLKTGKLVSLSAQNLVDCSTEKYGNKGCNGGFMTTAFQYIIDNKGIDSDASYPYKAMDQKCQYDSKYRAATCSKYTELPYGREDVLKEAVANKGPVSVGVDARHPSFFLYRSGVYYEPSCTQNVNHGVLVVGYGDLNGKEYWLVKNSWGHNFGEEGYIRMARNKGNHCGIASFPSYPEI

| SMILES | Sel cat. S |
| --- | --- |
| CCN(CC)Cc1ccc(-c2ccn(-c3ncccc3C(=O)NC(Cc3ccccc3)C(=O)C(N)=O)n2)cc1.Cl (stereo not drawn) [Example 43, N-(3-Amino-1-benzyl-2,3-dioxopropyl)-2-(3-{4-[(diethylamino)methyl]phenyl}-1H-pyrazol-1-yl)nicotinamide hydrochloride] | ++ (++ means a Ki(cathepsin S)/Ki(calpain) ratio of ≧100) |
| NC(=O)C(=O)C(Cc1ccccc1)NC(=O)c1cccnc1-n1cc2ccccc2n1 (stereo not drawn) [Example 78, N-(3-Amino-1-benzyl-2,3-dioxopropyl)-2-(2H-indazol-2-yl)nicotinamide] | + (+ means 50≦Ki(cathepsin S)/Ki(calpain)<100) |
| Cl.NC(=O)C(=O)C(Cc1ccccc1)NC(=O)c1cccnc1-n1ccc(-c2cccc(CN3CCOCC3)c2)n1 (stereo not drawn) [Example 52, N-(3-Amino-1-benzyl-2,3-dioxopropyl)-2-{3-[3-(morpholin-4-ylmethyl)phenyl]-1H-pyrazol-1-yl}nicotinamide hydrochloride] | ++ (++ means a Ki(cathepsin S)/Ki(calpain) ratio of ≧100) |
| NC(=O)C(=O)C(Cc1ccccc1)NC(=O)c1cccnc1-n1cc(CCN2CCOCC2)c(-c2ccc(F)cc2)n1 (stereo not drawn) [Example 165, N-[3-Amino-2,3-dioxo-1-(phenylmethyl)propyl]-2-[3-(4-fluorophenyl)-4-(2-morpholin-4-ylethyl)-1H-pyrazol-1-yl]pyridine-3-carboxamide] | ++ (++ means a Ki(cathepsin S)/Ki(calpain) ratio of ≧100) |
| NC(=O)C(=O)C(Cc1ccccc1)NC(=O)c1ccccc1-n1ccc(-c2ccccc2)n1 (stereo not drawn) [Example 106, N-[3-Amino-2,3-dioxo-1-(phenylmethyl)propyl]-2-(3-phenyl-1H-pyrazol-1-yl)benzamide] | ++ (++ means a Ki(cathepsin S)/Ki(calpain) ratio of ≧100) |
| CN(C)Cc1cn(-c2ncccc2C(=O)NC(Cc2ccccc2)C(=O)C(N)=O)nc1-c1cccc(C(F)(F)F)c1 (stereo not drawn) [Example 176, N-[3-Amino-2,3-dioxo-1-(phenylmethyl)propyl]-2-{4-[(dimethylamino)methyl]-3-[3-(trifluoromethyl)phenyl]-1H-pyrazol-1-yl}pyridine-3-carboxamide] | ++ (++ means a Ki(cathepsin S)/Ki(calpain) ratio of ≧100) |
| NC(=O)C(=O)C(Cc1ccccc1)NC(=O)c1cccnc1-n1cc(-c2ccccc2F)cn1 (stereo not drawn) [Example 104, N-[3-Amino-2,3-dioxo-1-(phenylmethyl)propyl]-2-[4-(2-fluorophenyl)-1H-pyrazol-1-yl]pyridine-3-carboxamide] | + (+ means 50≦Ki(cathepsin S)/Ki(calpain)<100) |
| CCN(CC)c1ccc(-c2ccn(-c3ncccc3C(=O)NC(Cc3ccccc3)C(=O)C(N)=O)n2)cc1 (stereo not drawn) [Example 42, N-(3-Amino-1-benzyl-2,3-dioxopropyl)-2-{3-[4-(diethylamino)phenyl]-1H-pyrazol-1-yl}nicotinamide] | ++ (++ means a Ki(cathepsin S)/Ki(calpain) ratio of ≧100) |
| NC(=O)C(=O)C(Cc1ccccc1)NC(=O)c1cccnc1-n1cc(CN2CCCC2)c(-c2cccc(C(F)(F)F)c2)n1 (stereo not drawn) [Example 178, N-[3-Amino-2,3-dioxo-1-(phenylmethyl)propyl]-2-{4-(pyrrolidin-1-ylmethyl)-3-[3-(trifluoronnethyl)phenyl]-1H-pyrazol-1-yl}pyridine-3-carboxamide] | ++ (++ means a Ki(cathepsin S)/Ki(calpain) ratio of ≧100) |
| NC(=O)C(=O)C(Cc1ccccc1)NC(=O)c1cccnc1-n1ccc(-c2ccc(CN3CCOCC3)cc2)n1 (stereo not drawn) [Example 46, N-(3-Amino-1-benzyl-2,3-dioxopropyl)-2-{3-[4-(morpholin-4-ylmethyl)phenyl]-1H-pyrazol-1-yl}nicotinamide] | ++ (++ means a Ki(cathepsin S)/Ki(calpain) ratio of ≧100) |
| NC(=O)C(=O)C(Cc1ccccc1)NC(=O)c1cccnc1-n1cc(CN2CCOCC2)c(-c2cccc(C(F)(F)F)c2)n1 (stereo not drawn) [Example 177, N-[3-Amino-2,3-dioxo-1-(phenylmethyl)propyl]-2-{4-(morpholin-4-ylmethyl)-3-[3-(trifluoromethyl)phenyl]-1H-pyrazol-1-yl}pyridine-3-carboxamide] | ++ (++ means a Ki(cathepsin S)/Ki(calpain) ratio of ≧100) |
| CCCCC(NC(=O)c1cccnc1-n1ccc(-c2ccc(CN3CCOCC3)cc2)n1)C(=O)C(N)=O (stereo not drawn) [Example 45, N-{1-[Amino(oxo)acetyl]pentyl}-2-{3-[4-(morpholin-4-ylmethyl)phenyl]-1H-pyrazol-1-yl}nicotinamide] | + (+ means 50≦Ki(cathepsin S)/Ki(calpain)<100) |
| CCCCC(NC(=O)c1cccnc1-n1ccc(-c2ccccc2)n1)C(=O)C(N)=O (stereo not drawn) [Example 6, N-{1-[Amino(oxo)acetyl]pentyl}-2-(3-phenyl-1H-pyrazol-1-yl)nicotinamide] | + (+ means 50≦Ki(cathepsin S)/Ki(calpain)<100) |
| CCCCC(NC(=O)c1cccnc1-n1ccc(-c2ccc(N(CC)CC)cc2)n1)C(=O)C(N)=O (stereo not drawn) [Example 47, N-{1-[Amino(oxo)acetyl]pentyl}-2-{3-[4-(diethylamino)phenyl]-1H-pyrazol-1-yl}nicotinamide] | ++ (++ means a Ki(cathepsin S)/Ki(calpain) ratio of ≧100) |
| NC(=O)C(=O)C(Cc1ccccc1)NC(=O)c1cccnc1-n1cnc(-c2ccc(N3CCOCC3)cc2)c1 (stereo not drawn) [Example 14, N-(3-Amino-1-benzyl-2,3-dioxopropyl)-2-[4-(4-morpholin-4-ylphenyl)-1H-imidazol-1-yl]nicotinamide] | ++ (++ means a Ki(cathepsin S)/Ki(calpain) ratio of ≧100) |
| NC(=O)C(=O)C(Cc1ccccc1)NC(=O)c1cccnc1-n1ccc(-c2ccc(-n3ccnc3)cc2)n1 (stereo not drawn) [Example 101, N-[3-Amino-2,3-dioxo-1-(phenylmethyl)propyl]-2-{3-[4-(1H-imidazol-1-yl)phenyl]-1H-pyrazol-1-yl}pyridine-3-carboxamide] | ++ (++ means a Ki(cathepsin S)/Ki(calpain) ratio of ≧100) |
| CCCCC(NC(=O)c1cccnc1-n1ccc(-c2ccc(CN(CC)CC)cc2)n1)C(=O)C(N)=O (stereo not drawn) [Example 44, N-{1-[Amino(oxo)acetyl]pentyl}-2-(3-{4-[(diethylamino)methyl]phenyl}-1H-pyrazol-1-yl)nicotinamide] | + (+ means 50≦Ki(cathepsin S)/Ki(calpain)<100) |
| NC(=O)C(=O)C(Cc1ccccc1)NC(=O)c1cccnc1-n1ccc(-c2ccncc2)n1 (stereo not drawn) [Example 65, N-(3-Amino-1-benzyl-2,3-dioxopropyl)-2-(3-pyridin-4-yl-1H-pyrazol-1-yl)nicotinamide] | ++ (++ means a Ki(cathepsin S)/Ki(calpain) ratio of ≧100) |

Target: T2, cathepsin L (Homo sapiens, UniProt P07711)
T2 construct: cathepsin L—isolated from human liver; purchased Calbiochem 219402; host or cells: human liver (tissue isolate)
Assay: Cathepsin L enzyme inhibition in vitro (kinetic fluorescence assay)
Type: biochemical
Settings: Ki(cathepsin L)/Ki(calpain) ratio
Protocol: as §1, §2, §3, §4

T2 sequence (P07711 114-333): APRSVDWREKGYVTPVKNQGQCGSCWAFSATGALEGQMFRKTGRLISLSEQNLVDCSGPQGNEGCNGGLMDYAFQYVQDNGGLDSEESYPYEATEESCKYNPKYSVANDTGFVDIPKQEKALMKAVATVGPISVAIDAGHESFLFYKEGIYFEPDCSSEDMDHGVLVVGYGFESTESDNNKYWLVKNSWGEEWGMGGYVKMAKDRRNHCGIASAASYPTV

| SMILES | Sel cat. L |
| --- | --- |
| NC(=O)C(=O)C(Cc1ccccc1)NC(=O)c1cccnc1-n1cc2ccccc2n1 (stereo not drawn) [Example 78, N-(3-Amino-1-benzyl-2,3-dioxopropyl)-2-(2H-indazol-2-yl)nicotinamide] | ++ (++ means a Ki(cathepsin L)/Ki(calpain) ratio of ≧50) |
| NC(=O)C(=O)C(Cc1ccccc1)NC(=O)c1ccccc1-n1ccc(-c2ccccc2)n1 (stereo not drawn) [Example 106, N-[3-Amino-2,3-dioxo-1-(phenylmethyl)propyl]-2-(3-phenyl-1H-pyrazol-1-yl)benzamide] | + (+ means 30≦Ki(cathepsin L)/Ki(calpain)<50) |
| CCCCC(NC(=O)c1cccnc1-n1cnc(-c2ccccc2)c1)C(=O)C(N)=O (stereo not drawn) [Example 2, N-{1-[Amino(oxo)acetyl]pentyl}-2-(4-phenyl-1H-imidazol-1-yl)nicotinamide] | ++ (++ means a Ki(cathepsin L)/Ki(calpain) ratio of ≧50) |
| COCc1cn(-c2ncccc2C(=O)NC(Cc2ccccc2)C(=O)C(N)=O)nc1-c1ccc(F)cc1 (stereo not drawn) [Example 170, N-[3-Amino-2,3-dioxo-1-(phenylmethyl)propyl]-2-{3-(4-fluorophenyl)-4-[(methyloxy)methyl]-1H-pyrazol-1-yl}pyridine-3-carboxamide] | + (+ means 30≦Ki(cathepsin L)/Ki(calpain)<50) |
| CCCCC(NC(=O)c1cc(Cl)cnc1-n1cnc(-c2ccccc2)c1)C(=O)C(N)=O.Cl (stereo not drawn) [Example 24, N-{1-[Amino(oxo)acetyl]pentyl}-5-chloro-2-(4-phenyl-1H-imidazol-1-yl)nicotinamide hydrochloride] | + (+ means 30≦Ki(cathepsin L)/Ki(calpain)<50) |
| Cc1cn(-c2ncccc2C(=O)NC(Cc2ccccc2)C(=O)C(N)=O)nc1-c1ccccc1 (stereo not drawn) [Example 86, N-[3-Amino-2,3-dioxo-1-(phenylmethyl)propyl]-2-(4-methyl-3-phenyl-1H-pyrazol-1-yl)pyridine-3-carboxamide] | ++ (++ means a Ki(cathepsin L)/Ki(calpain) ratio of ≧50) |

Source: patent US9139557B2, “Carboxamide compounds and their use as calpain inhibitors” (Abbott GmbH & Co. KG, priority 2006, dated 2015)
